Measurements published in patent US8911717B2, “Polymalic acid-based multifunctional drug delivery system” (Cedars-Sinai Medical Center, priority 2003, dated 2014).

How the values were obtained:
fresh human RBCs = assay: red blood cell (RBC) hemolysis assay (membrane disruptive activity); format: cell-based; conditions: pH 5.85 or pH 5.5; 2.5 nmol/10^8 RBCs; 1 h at 37° C.; absorbance of supernatant at 541 nm
Procedure: The fresh human RBCs were isolated by centrifugation of whole human blood at 2000 g for 5 min. The RBCs were washed three times with cold 100 mM sodium phosphate buffer of the desired pH (pH 5.85 or pH 5.5). The final pellet was resuspended in the same buffer to give a solution with […] RBCs per 1 ml. The polymers were dissolved in 100 mM dibasic sodium phosphate buffer at the desired pH at a concentration of 10 mg/ml. The polymer concentration was 2.5 nmol/10^8 RBCs. Hemolysis in distilled water was used to produce 100% lysis. RBCs in buffer with no polymer was used as reference controls. The hemolysis assay was performed by adding the polymer solution to the suspended RBCs in 1 ml of the appropriate buffer. The RBCs were mixed by inverting the tube several times, and incubated for 1 h in a 37° C. water bath. After incubation, the RBCs were centrifuged for […] at 13,500×g to sediment intact cells and the lysis was determined by measuring the absorbance of the supernatants at 541 nm which reflects the amount of hemoglobin released by the RBCs. The relative increase 100(A-Ao)/Atotal in absorbance at 541 nm wavelength of the cell-free supernatant was measured as an indicator of membrane rupture. […]

[1] = test system: protein kinase CK2 α chain; assay: Western blot of CK2 expression in cell lysates; format: cell-based, human; conditions: U251MG glioma cells treated for 3 days; compared to untreated control or EPEI-treated control
Procedure: The protein kinase CK2 complex is a tetramer comprised of catalytic α, α′ subunits and regulatory […] subunits that form complexes such as α2β2, αα′β2 and α′2β2. To achieve downregulation of CK2, the antisense oligonucleotides against the CK2 catalytic subunit a were conjugated to PMLA. Morpholino™-NH2 antisense oligonucleotides to the protein kinase CK2 catalytical domain a chain purchased from Gene Tools (USA) were as follows:
Inhibition of CK2 expression in vitro was assessed in the cell lysates of cultured glioma cell line U251MG treated for 3 days with nanoconjugates containing Morpholino antisense oligonucleotides CK2a-1, CK2a-2 or CK2a-3.

PMLA/mAB OX-26/morpholino antisense oligonucleotide/L-valine/2-mercaptoethylamine/mPEG-NH2 conjugate [PMLA-PEG-Valine-AS-mAB]
membrane disruptive activity (effect on RBC membranes) (fresh human RBCs): infer membrane destabilization

CK2a-1: PMLA nanoconjugate containing Morpholino antisense oligonucleotide CK2a-1, SEQ ID NO: 3, GATCTGGCAGTCACTGTGTTCAGAA (all phosphorodiamidate morpholino (PMO); amine-modified morpholino conjugated to polymalic acid nanoconjugate carrier, further chemistry not fully specified)
CK2 α chain expression, Western blot [1]: reduction

CK2a-2: PMLA nanoconjugate containing Morpholino antisense oligonucleotide CK2a-2, SEQ ID NO: 4, CCTGCTTGGCACGGGTCCCGACAT (all phosphorodiamidate morpholino (PMO); amine-modified morpholino conjugated to polymalic acid nanoconjugate carrier, further chemistry not fully specified)
CK2 α chain expression, Western blot [1]: reduction

CK2a-3: PMLA nanoconjugate containing Morpholino antisense oligonucleotide CK2a-3, SEQ ID NO: 5, CGGACAAAGCTGGACTTGATGTTT (all phosphorodiamidate morpholino (PMO); amine-modified morpholino conjugated to polymalic acid nanoconjugate carrier, further chemistry not fully specified)
CK2 α chain expression, Western blot [1]: reduction

PMLA/L-valine/2-mercaptoethylamine/mPEG-NH2 conjugate [PMLA-PEG-Valine]
membrane disruptive activity (effect on RBC membranes) (fresh human RBCs): infer membrane destabilization
